The test system of experiment [1] is Jurkat human acute T cell leukemia cells. The experiment is described as follows: Jurkat IL-2 release assay. Format: cell-based. The note with it: IL-2 release from Jurkat cells stimulated with anti-CD3 and anti-CD28, 48 hours, ELISA. The protocol:
Inhibition of cellular ITK was assessed by measuring release of IL-2 following stimulation with anti-CD3 and anti-CD28 antibodies. Individual wells of 96 well tissue culture plates were coated with 50 μL of 10 μg/mL anti-CD3 (OKT3, eBiosciences) for 2 hours at 37° C. Jurkat human acute T cell leukemia cells (ATCC) were plated in 96-well plates at a final concentration of 9.2×10e5 cells/mL in complete media (RPMI, 10% FBS, 1.5 g/L sodium bicarbonate, 10 mM Hepes, 1 mM sodium pyruvate, 4.5 g/L glucose) and pre-treated with compound curves for 30 minutes at 37° C., 5% CO2. Pre-treated cells plus compounds were transferred to washed anti-CD3 coated plates. Soluble anti-CD28 (CD28.2 eBiosciences) was added to each well at a final concentration of 1 μg/mL. The cells were placed in a humidified 37° C. incubator with 5% CO2 for 48 hours and IL-2 release was measured using a commercial ELISA (BD Bioscience catalog #555190). Controls included unstimulated cells and vehicle alone. EC50 values (50% IL-2 release in the presence of compound as compared to vehicle treated controls) were calculated from dose response compound curves using GraphPad Prism Software.
In general terms: In an ELISA, binding on a coated surface is turned into a signal by an enzyme label.

For experiment [2], the target named is RLK/TXK (Homo sapiens (Human), UniProt P42681). The experiment is described as follows: RLK/TXK kinase inhibition assay. In kind it is biochemical. The note with it: micro-fluidic detection, 3 hours at 25° C. The protocol: The in vitro kinase assays were performed at Nanosyn utilizing micro-fluidic detection technology. The test compounds were serially pre-diluted in DMSO and added, by the acoustic dispensing (Labcyte® 550), directly to 384well assay plates into 10 uL of a buffer with enzyme comprising: 100 mM HEPES, pH7.5, 5 mM MgCl2, 0.1% bovine serum albumin, 1 mM DTT, 0.01% Triton X-100 and the enzyme. Final DMSO concentration was maintained at 1% in all samples, including the controls. The reactions were initiated by addition of ATP (to the specified concentration) and the fluorescently labeled peptide substrate to a final concentration of 1 uM, and incubated for 3 hours at 25° C. Following incubation, the reactions were quenched by addition of 40 μL of termination buffer (100 mM HEPES, pH7.5, 0.01% Triton X-100, 50 mM EDTA). Terminated plates were analyzed using Caliper LabChip® 3000 microfluidic electrophoresis instrument (Caliper Life Sciences/Perkin Elmer). The enzymatic modification of the peptide substrate (phosphorylation) results in a change of net charge enabling electrophoretic separation of product from substrate. As substrate and product are separated by electrophoresis, two peaks of fluorescence are observed. Change in the relative fluorescence intensity of the substrate and product peaks was the parameter measured, reflecting enzyme activity. In the presence of inhibitor, the ratio between product and substrate is altered: signal of the product decreases, while the signal of the substrate increases. Activity in each test sample was determined as the product to sum ratio (PSR): P/(S+P), where P is the peak height of the product and S is the peak height of the […]. For each compound, enzyme activity was measured at 12 concentrations spaced by 3× dilution intervals. Negative control samples (0%-inhibition in the absence of inhibitor, DMSO only) and positive control samples (100%-inhibition, in the absence of enzyme or in the presence of control inhibitor) were assembled in replicates of four and were used to calculate %-inhibition values in the presence of compounds. Percent inhibition (Pinh) was determined using the following equation: Pinh=(PSR0%−PSRinh)/(PSR0%−PSR100%)*100, where PSRinh is the product sum ratio in the presence of inhibitor, PSR0% is the product sum ratio in the absence of inhibitor and PSR100% is the product sum ratio in 100%-inhibition control samples. To determine IC50 values, the inhibition curves (Pinh versus inhibitor concentration) were fitted by 4 parameter sigmoid dose-response model using XLfit software (IDBS).

Each structure is given as a SMILES string. Some results are limits rather than exact numbers.

Chain of RLK/TXK (P42681 whole entry): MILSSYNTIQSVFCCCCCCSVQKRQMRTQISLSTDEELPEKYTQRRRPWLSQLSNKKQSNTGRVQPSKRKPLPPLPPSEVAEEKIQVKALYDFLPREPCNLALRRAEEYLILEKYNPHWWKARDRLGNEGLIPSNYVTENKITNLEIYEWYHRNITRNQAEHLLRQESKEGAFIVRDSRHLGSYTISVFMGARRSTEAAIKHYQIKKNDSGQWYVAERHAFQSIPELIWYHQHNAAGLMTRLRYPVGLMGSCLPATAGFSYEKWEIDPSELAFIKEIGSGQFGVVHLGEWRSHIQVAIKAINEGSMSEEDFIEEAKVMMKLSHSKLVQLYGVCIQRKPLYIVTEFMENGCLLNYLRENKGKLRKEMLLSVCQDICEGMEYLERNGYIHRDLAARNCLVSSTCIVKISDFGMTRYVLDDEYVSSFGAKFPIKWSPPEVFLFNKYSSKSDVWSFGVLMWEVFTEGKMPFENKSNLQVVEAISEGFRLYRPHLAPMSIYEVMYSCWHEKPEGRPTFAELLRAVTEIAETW

As to `C=CC(=O)Nc1cccc(-n2c(NC(=O)c3ccno3)nc3cc(CN[C@@H](C)C(C)(C)C)ccc32)c1` [Compound 38], the EC50 in experiment [1] and in experiment [2] was below 10 nM each time.
With `C=CC(=O)Nc1cccc(-n2c(NC(=O)c3ccc(C(F)F)s3)nc3cc(CN[C@@H](C)C(C)(C)C)ccc32)c1` [Compound 2], the EC50 in experiment [1] and in experiment [2] was below 10 nM each time.
Consider `C=CC(=O)Nc1cccc(-n2c(NC(=O)c3ccc(-c4cnco4)s3)nc3cc(CN[C@@H](C)C(C)(C)C)ccc32)c1` [Compound 25], for which the EC50 in experiment [1] and in experiment [2] was below 10 nM in each case.
For the compound `C=CC(=O)Nc1cccc(-n2c(NC(=O)c3ccnn3C)nc3cc(CN[C@@H](C)C(C)(C)C)ccc32)c1` [Compound 28], the EC50 in experiment [1] and in experiment [2] was below 10 nM each time.
Consider `C=CC(=O)Nc1cccc(-n2c(NC(=O)c3cccc(C#N)c3)nc3cc(CN[C@@H](C)C(C)(C)C)ccc32)c1` [Compound 9], for which the EC50 in experiment [1] is 10 to 100 nM; in experiment [2] it was below 10 nM.

One may read the EC50 as the concentration needed to bring the measured effect to its halfway point. Read a low EC50 as higher potency in that assay.

For the origin of these results see patent US10562893B2, “Benzimidazoles derivatives as Tec kinases family inhibitors” (GB005, Inc., priority 2015, dated 2020).
